# Laboratory results taken from ChEMBL document CHEMBL1158870, “Antitumor agents. 180. Chemical Studies and cytotoxic evaluation of cumingianosides and cumindysoside A, antileukemic triterpene glucosides with a 14,18-cycloapotirucallane skeleton” (1997).
# How the values were obtained:
# HCT-116 = experiment: Cytotoxicity against human HCT116 cells by SRB assay; type: functional
# COLO 205 = experiment: Cytotoxicity against human COLO205 cells by SRB assay; type: functional
# [1] = Cytotoxicity against human HL60(TB) cells by SRB assay; type: functional, HL-60(TB); conditions: HL-60
# SN12C = experiment: Cytotoxicity against human SN12C cells by SRB assay; type: functional
# IGROV-1 = experiment: Cytotoxicity against human IGROV1 cells by SRB assay; type: functional
# OVCAR-3 = experiment: Cytotoxicity against human OVCAR-3 cells by SRB assay; type: functional
# MDA-MB-435 = experiment: Cytotoxicity against human MDA-MB-435 cells by SRB assay; type: functional
# UACC-62 = experiment: Cytotoxicity against human UACC62 cells by SRB assay; type: functional
# BT-549 = experiment: Cytotoxicity against human BT549 cells by SRB assay; type: functional
# NCI-H322M = experiment: Cytotoxicity against human NCI-H322M cells by SRB assay; type: functional
# OVCAR-8 = experiment: Cytotoxicity against human OVCAR8 cells by SRB assay; type: functional
# K562 = experiment: Cytotoxicity against human K562 cells by SRB assay; type: functional
# RXF 393 = experiment: Cytotoxicity against human RXF393 cells by SRB assay; type: functional
# U-251 = experiment: Cytotoxicity against human U251 cells by SRB assay; type: functional
# HT-29 = experiment: Cytotoxicity against human HT29 cells by SRB assay; type: functional
# [2] = Cytotoxicity against human melanoma cells by SRB assay; type: functional; conditions: Melanoma cell
# DU-145 = experiment: Cytotoxicity against human DU145 cells by SRB assay; type: functional
# CAKI-1 = experiment: Cytotoxicity against human Caki1 cells by SRB assay; type: functional
# [3] = Cytotoxicity against human breast cancer cells by SRB assay; type: functional; conditions: Cancer cell lines
# KM12 = experiment: Cytotoxicity against human KM12 cells by SRB assay; type: functional
# HOP-62 = experiment: Cytotoxicity against human HOP62 cells by SRB assay; type: functional
# HCT-15 = experiment: Cytotoxicity against human HCT15 cells by SRB assay; type: functional
# SNB-75 = experiment: Cytotoxicity against human SNB75 cells by SRB assay; type: functional
# SF-295 = experiment: Cytotoxicity against human SF295 cells by SRB assay; type: functional
# [4] = Cytotoxicity against human renal cancer cells by SRB assay; type: functional; conditions: Cancer cell lines
# M14 = experiment: Cytotoxicity against human M14 cells by SRB assay; type: functional
# T47D = experiment: Cytotoxicity against human T47D cells by SRB assay; type: functional
# MDA-MB-231 = experiment: Cytotoxicity against human MDA-MB-231 cells by SRB assay; type: functional
# A498 = experiment: Cytotoxicity against human A498 cells by SRB assay; type: functional
# OVCAR-4 = experiment: Cytotoxicity against human OVCAR4 cells by SRB assay; type: functional
# NCI-H522 = experiment: Cytotoxicity against human NCI-H522 cells by SRB assay; type: functional
# NCI-H23 = experiment: Cytotoxicity against human NCI-H23 cells by SRB assay; type: functional
# UO-31 = experiment: Cytotoxicity against human UO31 cells by SRB assay; type: functional
# Malme-3M = experiment: Cytotoxicity against human MALME-3M cells by SRB assay; type: functional
# [5] = Cytotoxicity against human CNS cancer cells by SRB assay; type: functional; conditions: Cancer cell lines
# UACC-257 = experiment: Cytotoxicity against human UACC257 cells by SRB assay; type: functional
# SW-620 = experiment: Cytotoxicity against human SW620 cells by SRB assay; type: functional
# [6] = Cytotoxicity against human MCF7/ADR cells by SRB assay; type: functional; conditions: NCI/ADR-RES
# [7] = Cytotoxicity against human Hs 578T cells by SRB assay; type: functional
# Leukemia cell = experiment: Cytotoxicity against human Leukemia cells by SRB assay; type: functional
# MDA-N = experiment: Cytotoxicity against human MDA-N cells by SRB assay; type: functional
# SK-MEL-5 = experiment: Cytotoxicity against human SK-MEL-5 cells by SRB assay; type: functional
# SF-268 = experiment: Cytotoxicity against human SF268 cells by SRB assay; type: functional
# [8] = Cytotoxicity against human 786-O cells by SRB assay; type: functional; conditions: 786-0
# RPMI-8226 = experiment: Cytotoxicity against human RPMI8226 cells by SRB assay; type: functional
# CCRF-CEM = experiment: Cytotoxicity against human CCRF-CEM cells by SRB assay; type: functional
# NCI-H226 = experiment: Cytotoxicity against human NCI-H226 cells by SRB assay; type: functional
# LOX IMVI = experiment: Cytotoxicity against human LOXIMVI cells by SRB assay; type: functional
# NSCLC = experiment: Cytotoxicity against human NSCLC cells by SRB assay; type: functional
# HCC 2998 = experiment: Cytotoxicity against human HCC2998 cells by SRB assay; type: functional
# [9] = Cytotoxicity against human Colon cancer cells by SRB assay; type: functional; conditions: Cancer cell lines
# MCF7 = experiment: Cytotoxicity against human MCF7 cells by SRB assay; type: functional
# A549 = experiment: Cytotoxicity against human A549 cells by SRB assay; type: functional
# HOP-92 = experiment: Cytotoxicity against human HOP92 cells by SRB assay; type: functional
# SK-OV-3 = experiment: Cytotoxicity against human SKOV3 cells by SRB assay; type: functional
# [10] = Cytotoxicity against human prostate cancer cells by SRB assay; type: functional; conditions: Cancer cell lines
# SK-MEL-2 = experiment: Cytotoxicity against human SK-MEL-2 cells by SRB assay; type: functional
# [11] = Cytotoxicity against human ovarian cancer cells by SRB assay; type: functional; conditions: Cancer cell lines
# SK-MEL-28 = experiment: Cytotoxicity against human SK-MEL-28 cells by SRB assay; type: functional
# OVCAR-5 = experiment: Cytotoxicity against human OVCAR5 cells by SRB assay; type: functional
# SR = experiment: Cytotoxicity against human SR cells by SRB assay; type: functional
# NCI-H460 = experiment: Cytotoxicity against human NCI-H460 cells by SRB assay; type: functional
# MOLT-4 = experiment: Cytotoxicity against human MOLT4 cells by SRB assay; type: functional
# SNB-19 = experiment: Cytotoxicity against human SNB19 cells by SRB assay; type: functional
# EKVX = experiment: Cytotoxicity against human EKVX cells by SRB assay; type: functional
# ACHN = experiment: Cytotoxicity against human ACHN cells by SRB assay; type: functional
# PC-3 = experiment: Cytotoxicity against human PC3 cells by SRB assay; type: functional
smiles,measurement,setting,value
COC(C)(C)[C@@H](O)[C@H]1C[C@H](C)[C@@]2(CC[C@]3(C)[C@@H]2CC[C@@H]2[C@@]4(C)CC[C@@H](OC(C)=O)C(C)(C)[C@@H]4C[C@@H](O[C@@H]4O[C@H](COC(C)=O)[C@@H](O)[C@H](O)[C@H]4O)[C@]23C)O1,GI50,HCT-116,2.69 µM
same,TGI,HCT-116,10 µM
same,GI50,COLO 205,2.14 µM
same,TGI,COLO 205,4.7 µM
same,GI50,[1],2.34 µM
same,GI50,SN12C,4.17 µM
same,GI50,IGROV-1,4.37 µM
same,GI50,OVCAR-3,4.79 µM
same,GI50,MDA-MB-435,3.63 µM
same,GI50,UACC-62,5.25 µM
same,GI50,BT-549,12.6 µM
same,GI50,NCI-H322M,1.91 µM
same,GI50,OVCAR-8,5.25 µM
same,GI50,K562,3.09 µM
same,GI50,RXF 393,3.16 µM
same,GI50,U-251,5.37 µM
same,GI50,HT-29,1.86 µM
same,TGI,HT-29,4 µM
same,TGI,[2],20.2 µM
same,GI50,DU-145,4.47 µM
same,GI50,CAKI-1,5.37 µM
same,TGI,[3],18.6 µM
same,GI50,KM12,1.32 µM
same,TGI,KM12,2 µM
same,GI50,HOP-62,11.5 µM
same,GI50,HCT-15,2.4 µM
same,TGI,HCT-15,5.6 µM
same,GI50,SNB-75,3.55 µM
same,GI50,SF-295,4.37 µM
same,TGI,[4],17.9 µM
same,GI50,M14,4.47 µM
same,GI50,T47D,4.17 µM
same,GI50,MDA-MB-231,11 µM
same,GI50,A498,13.2 µM
same,GI50,OVCAR-4,2.95 µM
same,GI50,NCI-H522,4.57 µM
same,GI50,NCI-H23,9.33 µM
same,GI50,UO-31,5.25 µM
same,GI50,Malme-3M,11.2 µM
same,TGI,[5],18.7 µM
same,GI50,UACC-257,5.89 µM
same,GI50,SW-620,6.46 µM
same,TGI,SW-620,19.8 µM
same,GI50,[6],7.41 µM
same,GI50,[7],4.07 µM
same,TGI,Leukemia cell,32.1 µM
same,GI50,MDA-N,5.25 µM
same,GI50,SK-MEL-5,8.32 µM
same,GI50,SF-268,6.03 µM
same,GI50,[8],5.25 µM
same,GI50,RPMI-8226,2.4 µM
same,GI50,CCRF-CEM,3.09 µM
same,GI50,NCI-H226,4.79 µM
same,GI50,LOX IMVI,4.79 µM
same,TGI,NSCLC,17.8 µM
same,GI50,HCC 2998,0.204 µM
same,TGI,HCC 2998,1.8 µM
same,TGI,[9],6.9 µM
same,GI50,MCF7,2.14 µM
same,GI50,A549,3.89 µM
same,GI50,HOP-92,12.9 µM
same,GI50,SK-OV-3,4.79 µM
same,TGI,[10],13.1 µM
same,GI50,SK-MEL-2,6.17 µM
same,TGI,[11],15.8 µM
same,GI50,SK-MEL-28,6.31 µM
same,GI50,OVCAR-5,3.16 µM
same,GI50,SR,2.19 µM
same,GI50,NCI-H460,3.8 µM
same,GI50,MOLT-4,2.29 µM
same,GI50,SNB-19,10 µM
same,GI50,EKVX,5.5 µM
same,GI50,ACHN,5.25 µM
same,GI50,PC-3,2.82 µM
C=C(C)[C@@H](O)[C@H](O)C[C@H](C)[C@@H]1CC[C@]2(C)C1=CC[C@@H]1[C@@]3(C)CC[C@@H](OC(C)=O)C(C)(C)[C@@H]3C[C@@H](O[C@@H]3O[C@H](COC(C)=O)[C@@H](O)[C@H](O)[C@H]3O)[C@]12C,GI50,HCT-116,1.86 µM
same,TGI,HCT-116,3.5 µM
same,GI50,COLO 205,2.04 µM
same,TGI,COLO 205,3.5 µM
same,GI50,[1],2.09 µM
same,GI50,SN12C,3.09 µM
same,GI50,IGROV-1,2.34 µM
same,GI50,OVCAR-3,1.86 µM
same,GI50,MDA-MB-435,1.95 µM
same,GI50,UACC-62,1.51 µM
same,GI50,BT-549,3.39 µM
same,GI50,NCI-H322M,1.86 µM
same,GI50,OVCAR-8,3.63 µM
same,GI50,K562,1.91 µM
same,GI50,RXF 393,2.09 µM
same,GI50,U-251,2.19 µM
same,GI50,HT-29,1.91 µM
same,TGI,HT-29,3.8 µM
same,TGI,[2],4.2 µM
same,GI50,DU-145,2.57 µM
same,GI50,CAKI-1,2.63 µM
same,TGI,[3],10.7 µM
same,GI50,KM12,1.58 µM
same,TGI,KM12,3 µM
same,GI50,HOP-62,2.63 µM
same,GI50,HCT-15,2.95 µM
same,TGI,HCT-15,10 µM
same,GI50,SNB-75,1.86 µM
same,GI50,SF-295,2.19 µM
same,TGI,[4],9.7 µM
same,GI50,M14,2.09 µM
same,GI50,T47D,2.57 µM
same,GI50,MDA-MB-231,1.86 µM
same,GI50,A498,3.89 µM
same,GI50,OVCAR-4,2.95 µM
same,GI50,NCI-H522,1.82 µM
same,GI50,NCI-H23,4.17 µM
same,GI50,UO-31,3.89 µM
same,GI50,Malme-3M,1.58 µM
same,TGI,[5],9.5 µM
same,GI50,UACC-257,2.75 µM
same,GI50,SW-620,3.02 µM
same,TGI,SW-620,10.4 µM
same,GI50,[6],16.2 µM
same,GI50,[7],2.34 µM
same,TGI,Leukemia cell,5.1 µM
same,GI50,MDA-N,2.34 µM
same,GI50,SK-MEL-5,1.91 µM
same,GI50,SF-268,2.82 µM
same,GI50,[8],3.72 µM
same,GI50,RPMI-8226,1.91 µM
same,GI50,CCRF-CEM,2.24 µM
same,GI50,NCI-H226,3.02 µM
same,GI50,LOX IMVI,1.62 µM
same,TGI,NSCLC,9 µM
same,GI50,HCC 2998,0.0776 µM
same,TGI,HCC 2998,0.9 µM
same,TGI,[9],5 µM
same,GI50,MCF7,2.75 µM
same,GI50,A549,3.24 µM
same,GI50,HOP-92,2.34 µM
same,GI50,SK-OV-3,2.88 µM
same,TGI,[10],7 µM
same,GI50,SK-MEL-2,2 µM
same,TGI,[11],7.4 µM
same,GI50,SK-MEL-28,2.34 µM
same,GI50,OVCAR-5,1.91 µM
same,GI50,SR,1.91 µM
same,GI50,NCI-H460,2.45 µM
same,GI50,MOLT-4,2.29 µM
same,GI50,SNB-19,3.89 µM
same,GI50,EKVX,3.16 µM
same,GI50,ACHN,1.91 µM
same,GI50,PC-3,2.14 µM
